Measurements as given in US9617237B2, “Partially saturated tricyclic compounds and methods of making and using same” (Zafgen, Inc., priority 2011, dated 2017).
pIC50: −log10 of the molar value. Where a name gives a salt, the structure may show the parent alone.

What follows are compounds tested against T1, recombinant human MetAP2 (Homo sapiens, UniProt P50579) (assay: Inhibition of recombinant human MetAP2 activity (fluorescence, MAS substrate, amino acid oxidase/Amplex red)). Settings: manganese enzyme; 0.75 mM Methionine-Alanine-Serine (MAS) substrate; 30 minutes at 25° C.; pH 7.5; 1% DMSO.
T1 construct: made in house; host or cells: Sf9 insect cells
Type: biochemical
Procedure: Compounds are tested for their capacity to inhibit recombinant human MetAP2 activity using the following assay.
Human recombinant MetAP2 expressed in Sf9 cells followed by affinity purification and EDTA treatment to remove endogenous active site cation was dialysed against MnCl2 to produce the manganese enzyme used in the assay. The assay was carried out for 30 minutes at 25° C. in 50 mM HEPES buffer containing 100 mM NaCl, pH 7.5 the presence of 0.75 mM Methionine-Alanine-Serine (MAS) substrate and 50 μg/ml amino acid oxidase using a dilution of purified MetAP2 giving >3-fold signal: noise. Cleavage of the substrate by MetAP2 and oxidation of free methionine by amino acid oxidase was detected and quantified using fluorescence generated by Amplex red (10-acetyl-3,7-dihydroxyphenoxazine) in combination with horseradish peroxidase which detects H2O2 released during the oxidation step. The fluorescent signal was detected using a multiwell fluorimeter. Compounds were diluted in DMSO prior to addition to assay buffer, the final DMSO concentration in the assay being 1%.
IC50 values are calculated using the XLfit software package (version 2.0.5).

T1 sequence (P50579 whole entry): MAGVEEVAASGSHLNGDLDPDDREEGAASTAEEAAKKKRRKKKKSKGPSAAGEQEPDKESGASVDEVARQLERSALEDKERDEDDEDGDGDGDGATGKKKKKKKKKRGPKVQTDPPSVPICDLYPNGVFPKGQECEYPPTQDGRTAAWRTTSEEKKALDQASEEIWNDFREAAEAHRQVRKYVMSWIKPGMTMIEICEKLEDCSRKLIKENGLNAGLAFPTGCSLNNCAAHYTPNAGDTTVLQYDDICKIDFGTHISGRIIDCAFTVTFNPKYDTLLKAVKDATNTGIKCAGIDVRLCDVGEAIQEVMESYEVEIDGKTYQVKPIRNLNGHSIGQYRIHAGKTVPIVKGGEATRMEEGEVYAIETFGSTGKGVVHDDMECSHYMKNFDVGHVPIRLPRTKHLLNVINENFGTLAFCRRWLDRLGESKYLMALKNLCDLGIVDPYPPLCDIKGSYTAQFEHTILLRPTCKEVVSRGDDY

Compound	pIC50
CCN1CCN(Cc2cc(F)ccc2S(=O)(=O)Nc2ccc3c(c2C(=O)O)OC[C@@H]2C[C@H]32)C(=O)C1 (racemic) [(1aRS,7bSR)-5-[2-(4-Ethyl-2-oxopiperazin-1-ylmethyl)-4-fluorobenzene-sulfonylamino]-1,1a,2,7b-tetrahydrocyclopropa-[c]chromene-4-carboxylic acid]	6.30 to 7.30
CN(C)CCCCCNc1ccccc1S(=O)(=O)Nc1ccc2c(c1C(=O)O)OC[C@@H]1C[C@H]21 (racemic) [(1aRS,7bSR)-5-[2-(5-Dimethylaminopentylamino)benzene-sulfonylamino]-1,1a,2,7b-tetrahydrocyclopropa[c]chromene-4-carboxylic acid]	> 7.30
CCN(CC)C/C(C)=C\c1cc(F)ccc1S(=O)(=O)Nc1ccc2c(c1C(=O)O)OC[C@@H]1C[C@H]21 (racemic) [(1aRS,7bSR)-5-[2-((Z)-3-Diethylamino-2-methylprop-1-enyl)-4-fluorobenzene-sulfonylamino]-1,1a,2,7b-tetrahydrocyclopropa-[c]chromene-4-carboxylic acid]	> 7.30
CCN(CC)C/C=C\c1cc(F)ccc1S(=O)(=O)Nc1ccc2c(c1C(=O)O)OCC1C2C1(F)F (racemic) [(1aRS,7bSR)-5-[2-((Z)-3-Diethylaminoprop-1-enyl)-4-fluorobenzene-sulfonylamino]-1,1-difluoro-1,1a,2,7b-tetrahydrocyclopropa[c]chromene-4-carboxylic acid]	> 7.30
CCN1CC(CCc2cc(F)ccc2S(=O)(=O)Nc2ccc3c(c2C(=O)O)OC[C@@H]2C[C@H]32)C1 (racemic) [(1aRS,7bSR)-5-{2-[2-(1-Ethylazetidin-3-yl)ethyl]-4-fluoro-benzenesulfonyl-amino}-1,1a,2,7b-tetrahydrocyclopropa-[c]chromene-4-carboxylic acid]	6.30 to 7.30
O=C(O)c1c(NS(=O)(=O)c2ccccc2N[C@H]2CN3CCC2CC3)ccc2c1OCC1CC21 (mixture of isomers) [(1aRS,7bSR)-5-{2-[((R)-1-Azabicyclo[2.2.2]oct-3-yl)amino]benzenesulfonyl-amino}-1,1a,2,7b-tetrahydrocyclopropa[c]chromene-4-carboxylic acid]	> 7.30
O=C(O)c1c(NS(=O)(=O)c2ccccc2N[C@@H]2CN3CCC2CC3)ccc2c1OCC1CC21 (mixture of isomers) [(1aRS,7bSR)-5-{2-[((S)-1-Azabicyclo[2.2.2]oct-3-yl)amino]benzenesulfonyl-amino}-1,1a,2,7b-tetrahydrocyclopropa[c]chromene-4-carboxylic acid]	6.30 to 7.30
CCN1CC[C@@H](Cc2cc(F)ccc2S(=O)(=O)Nc2ccc3c(c2C(=O)O)OC[C@@H]2C[C@H]32)C1 (single isomer, unassigned)	> 7.30
CCNC/C=C\c1cc(F)ccc1S(=O)(=O)Nc1ccc2c(c1C(=O)O)OC[C@@H]1C[C@H]21 (single isomer, unassigned) [(1aRS,7bSR)-5-[2((Z)-3-ethylaminoprop-1-enyl)-4-fluorobenzenesulfonylamino]-1,1a,2,7b-tetrahydrocyclopropa[c]chromene-4-carboxylic acid]	> 7.30
CCN(CC)CC/C=C\c1cc(F)ccc1S(=O)(=O)Nc1ccc2c(c1C(=O)O)OCC1CC21 (single isomer, unassigned) [(1aRS,7bSR)-5-[2((Z)-4-diethylaminobut-1-enyl)-4-fluorobenzenesulfonyl-amino]-1,1a,2,7b-tetrahydrocyclopropa[c]chromene-4-carboxylic acid]	6.30 to 7.30
CCN(CC)C/C=C\c1cc(F)ccc1S(=O)(=O)Nc1ccc2c(c1C(=O)O)OCC1CC21 (stereo not drawn) [5-[2-((Z)-3-Diethylaminoprop-1-enyl)-4-fluorobenzenesulfonyl-amino]-1,1a,2,7b-tetrahydrocyclopropa[c]chromene-4-carboxylic acid]	> 7.30
O=C(O)c1c(NS(=O)(=O)c2ccccc2)ccc2c3c(cnc12)OCC3 [7-(Benzenesulfonylamino))-1,2-dihydrofuro[2,3-c]quinoline-6-carboxylic acid formate salt]	> 7.30
CCN(CC)C/C=C\c1cc(F)ccc1S(=O)(=O)Nc1ccc2c3c(cnc2c1C(=O)O)OCC3 [7-[2-((Z)-3-Diethylaminoprop-1-enyl)-4-fluorobenzenesulfonyl-amino]-1,2-dihydrofuro[2,3-c]quinoline-6-carboxylic acid formate salt]	> 7.30
CCN(CC)C/C=C\c1cc(F)ccc1S(=O)(=O)Nc1ccc2c(c1C(=O)O)OC[C@@H]1C[C@H]21 [(1aR,7bS) 5-[2-((Z)-3-Diethylaminoprop-1-enyl)-4-fluorobenzenesulfonyl-amino]-1,1a,2,7b-tetrahydrocyclopropa[c]chromene-4-carboxylic acid]	> 7.30
CCN1CCCC(Cc2cc(F)ccc2S(=O)(=O)Nc2ccc3c(c2C(=O)O)OC[C@@H]2C[C@H]32)C1 (stereo partly drawn) [(1aR,7bS)-5-[2-(1-Ethylpiperidin-3-ylmethyl)-4-fluorobenzene-sulfonylamino]-1,1a,2,7b-tetrahydrocyclopropa[c]chromene-4-carboxylic acid]	6.30 to 7.30

Results, then the compound that gave them:

pIC50	Compound
6.30 to 7.30	CCN1CCN(CCc2cc(F)ccc2S(=O)(=O)Nc2ccc3c(c2C(=O)O)OC[C@@H]2C[C@H]32)CC1 (racemic) [(1aRS,7bSR)-5-{2-[2-(4-Ethylpiperazin-1-yl)-ethyl]-4-fluorobenzenesulfonylamino}-1,1a,2,7b-tetrahydrocyclopropa[c]chromene-4-carboxylic acid]
6.30 to 7.30	O=C(O)c1c(NS(=O)(=O)c2ccc(F)cc2CCN2CCCC2)ccc2c1OC[C@@H]1C[C@H]21 (racemic) [(1aRS,7bSR)-5-{2-[2-(Pyrrolidin-1-yl)-ethyl]-4-fluorobenzene-sulfonylamino}-1,1a,2,7b-tetrahydrocyclopropa[c]chromene-4-carboxylic acid]
< 6.30	CN(C)CCCCN(C)c1ccccc1S(=O)(=O)Nc1ccc2c(c1C(=O)O)OC[C@@H]1C[C@H]21 (racemic) [(1aRS,7bSR)-5-{2-[N-(4-Dimethylaminobutyl)-N-methylamino]-benzenesulfonyl-amino}-1,1a,2,7b-tetrahydrocyclopropa-[c]chromene-4-carboxylic acid]
6.30 to 7.30	O=C(O)c1c(NS(=O)(=O)c2ccc(F)cc2/C=C\CN2CCC2)ccc2c1OC[C@@H]1C[C@H]21 (racemic) [(1aRS,7bSR)-5-{2[(Z)-3-(Azetidin-1-yl)prop-1-enyl]-4-fluorobenzene-sulfonylamino}-1,1a,2,7b-tetrahydro-cyclopropa[c]chromene-4-carboxylic acid]
> 7.30	O=C(O)c1c(NS(=O)(=O)c2ccc(F)cc2/C=C\CN2CCCC2)ccc2c1OC[C@@H]1C[C@H]21 (racemic) [(1aRS,7bSR)-5-{2[(Z)-3-(Pyrrolidin-1-yl)prop-1-enyl]-4-fluorobenzenesulfonylamino}-1,1a,2,7b-tetrahydro-cyclopropa[c]chromene-4-carboxylic acid]
6.30 to 7.30	O=C(O)c1c(NS(=O)(=O)c2ccccc2)ccc2c1OC[C@H]1OCC[C@@H]21 (racemic) [Cis-(3aRS,9bRS)-7-(Benzenesulfonylamino)-1,3a,4,9b-tetrahydro-2H-furo[2,3-c]chromene-6-carboxylic acid]
6.30 to 7.30	CCN(CC)CCCc1cc(F)ccc1S(=O)(=O)Nc1ccc2c(c1C(=O)O)OC[C@H]1OCC[C@@H]21 (racemic) [Cis-(3aRS,9bRS)-7-[2-(3-Diethylaminopropyl)-4-fluorobenzenesulfonyl-amino]-1,3a,4,9b-tetrahydro-2H-furo[2,3-c]chromene-6-carboxylic acid]
> 7.30	O=C(O)c1c(NS(=O)(=O)c2ccc(F)cc2CCCN2CCCC2)ccc2c1OC[C@H]1OCC[C@@H]21 (racemic) [Cis-(3aRS,9bRS)-7-[2-(3-{Pyrrolidin-1-yl}propyl)-4-fluorobenzene-sulfonylamino]-1,3a,4,9b-tetrahydro-2H-furo[2,3-c]chromene-6-carboxylic acid]
6.30 to 7.30	CN(C)CCCCNc1ccccc1S(=O)(=O)Nc1ccc2c(c1C(=O)O)OC[C@H]1OCC[C@@H]21 (racemic) [Cis-(3aRS,9bRS)-7-[2-(4-dimethylamino-butylamino)-benzenesulfonylamino]-1,3a,4,9b-tetrahydro-2H-furo[2,3-c]chromene-6-carboxylic acid]
> 7.30	CCN(CC)C/C=C\c1cc(F)ccc1S(=O)(=O)Nc1ccc2c(c1C(=O)O)OC[C@H]1OCC[C@@H]21 (racemic) [Cis-(3aRS,9bRS)-7-[2-((Z)-3-Diethylaminoprop-1-enyl)-4-fluoro-benzenesulfonylamino]-1,3a,4,9b-tetrahydro-2H-furo[2,3-c]chromene-6-carboxylic acid]
> 7.30	CCN(CC)C/C=C\c1cc(F)ccc1S(=O)(=O)Nc1ccc2c(c1C(=O)O)NC[C@H]1OCC[C@@H]21 (racemic) [Cis-(3aRS,9bRS)-7-[2-((Z)-3-Diethylaminoprop-1-enyl)-4-fluorobenzenesulfonylamino]-1,2,3a,4,5,9b-hexahydrofuro[2,3-c]quinoline-6-carboxylic acid]
6.30 to 7.30	O=C(O)c1c(NS(=O)(=O)c2ccc(F)cc2/C=C\CN2CCCC2)ccc2c1OC[C@@H]1C[C@H]21 (single isomer, unassigned) [(1aRS,7bSR)-5-{2[(Z)-3-(pyrrolidin-1-yl)prop-1-enyl]-4-fluorobenzenesulfonylamino}-1,1a,2,7b-tetrahydro-cyclopropa[c]chromene-4-carboxylic acid]
